In article PMC2363502:

Tests used:
[1] = tested on: tumour; set-up: method as in Gschaidmeier et al, 1999, O'Reilly et al, 2000; settings: in vitro and in vivo; ref Gschaidmeier et al, 1999, O'Reilly et al, 2000; cited from earlier work
[2] = short-term single or repeat bolus injections of high doses; preclinical background, ref not given; cited from earlier work
[3] = phase I pharmacokinetics in plasma and urine; type: in vivo, human
Protocol: Preclinical testing confirmed promising antiproliferative activity. […] Physical examination was performed weekly. […] N-Acetyl-SPERMINE SSAT SSAT […] Analysis was descriptive only. […] Patient characteristics are described in Table 1. […] Three patients completed the full six cycles of treatment. Of these, two received the combination 5FU/SAM486A from cycle 3 onwards. Five patients recorded a best response of stable disease. Of these, three received the combination 5FU/SAM486A from cycle 3 onwards (see below).

N=C(N)c1cccc2c1CCC2=NN=C(N)N [SAM486A]
effect of combination with 5FU and with cisplatin [1]: Additive to synergistic effects | acute toxicity findings [2]: acute cardiovascular and respiratory | mean terminal elimination t1/2 ([3]; all patients included in the analysis, standard deviation 23.1 h): 48.6 h | fraction of total drug administered excreted in urine ([3]; day 1): Approximately 3% | plasma SAM486A concentrations ([3]; first 10 patients at lowest dose levels, significant portions of sampling interval): below the limit of quantitation | terminal half-life (approximate) ([3]; plasma, patients): approximately 2 days
